Residues, ends and D or L forms follow the SMILES beside them.
Assay: Body weight in chronic contact dermatitis mouse model
Format: in vivo
Settings: DNCB mice
Protocol: The 6-week-old male […] mouse used in the animal experiment is a species of ‘SKH-1 hairless’ and barely has body hair to ensure convenience in intuitively observing the skin condition, of which was divided, for experiment, into 3 groups out of 18 individuals in total (6 individuals for a negative control group/6 individuals for a positive control group/6 individuals for a novel peptide treated group).
After an adaptation period of about 2 weeks, 100 μL of 2,4-dinitrochlorobenzene (DNCB) prepared at a concentration of 1% in solution of acetone: olive oil (3:1) was applied onto the dorsal skin of mice at a certain time every day. After 1 week, if the incidence of contact dermatitis was observed, the DNCB was lowered to 0.5% and applied by 100 μL every 2 days, and the novel peptide was prepared in normal saline at a concentration of 1 mg/ml and applied by 100 μg daily for 3 weeks, while skin condition was observed every week during the experiment.

C[C@@H](O)[C@H](NC(=O)[C@@H](N)CCCCN)C(=O)N[C@@H](Cc1ccccc1)C(=O)N[C@@H](CCCNC(=N)N)C(=O)O [novel peptide, KTFR] (H-KTFR-OH)
changes in the body weight (100 μg applied daily for 3 weeks): no significant changes in the body weight | stress induced by the peptide (concluded from body weight): no stress was induced
